Experimental data published in patent US8426437B2, “Pyrroloquinoline derivatives and their use as protein kinases inhibitors” (Pierre Fabre Medicament, priority 2005, dated 2013).
Where a name gives a salt, the structure may show the parent alone.

target: T1, RET (Homo sapiens, UniProt P07949); assay: Inhibition of RET kinase activity, recombinant RET method (Kinase-Glo); assay type: biochemical; settings: RET 2 μg/ml, poly-EY4 substrate, 20 μM ATP, two hours at 30° C.
T1 construct: purchased Upstate 14-570MG
Outline: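 Recombinant RET at 2 μg/ml in 20 mM MOPS/NaOH pH 7.0, 1 mM EDTA, 5% glycerol, 0.01% Brij35, 0.1% 2-mercaptoethanol, 1 mg/ml BSA; compounds 10 nM–30 μM final.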

T1 sequence (P07949 29-1114): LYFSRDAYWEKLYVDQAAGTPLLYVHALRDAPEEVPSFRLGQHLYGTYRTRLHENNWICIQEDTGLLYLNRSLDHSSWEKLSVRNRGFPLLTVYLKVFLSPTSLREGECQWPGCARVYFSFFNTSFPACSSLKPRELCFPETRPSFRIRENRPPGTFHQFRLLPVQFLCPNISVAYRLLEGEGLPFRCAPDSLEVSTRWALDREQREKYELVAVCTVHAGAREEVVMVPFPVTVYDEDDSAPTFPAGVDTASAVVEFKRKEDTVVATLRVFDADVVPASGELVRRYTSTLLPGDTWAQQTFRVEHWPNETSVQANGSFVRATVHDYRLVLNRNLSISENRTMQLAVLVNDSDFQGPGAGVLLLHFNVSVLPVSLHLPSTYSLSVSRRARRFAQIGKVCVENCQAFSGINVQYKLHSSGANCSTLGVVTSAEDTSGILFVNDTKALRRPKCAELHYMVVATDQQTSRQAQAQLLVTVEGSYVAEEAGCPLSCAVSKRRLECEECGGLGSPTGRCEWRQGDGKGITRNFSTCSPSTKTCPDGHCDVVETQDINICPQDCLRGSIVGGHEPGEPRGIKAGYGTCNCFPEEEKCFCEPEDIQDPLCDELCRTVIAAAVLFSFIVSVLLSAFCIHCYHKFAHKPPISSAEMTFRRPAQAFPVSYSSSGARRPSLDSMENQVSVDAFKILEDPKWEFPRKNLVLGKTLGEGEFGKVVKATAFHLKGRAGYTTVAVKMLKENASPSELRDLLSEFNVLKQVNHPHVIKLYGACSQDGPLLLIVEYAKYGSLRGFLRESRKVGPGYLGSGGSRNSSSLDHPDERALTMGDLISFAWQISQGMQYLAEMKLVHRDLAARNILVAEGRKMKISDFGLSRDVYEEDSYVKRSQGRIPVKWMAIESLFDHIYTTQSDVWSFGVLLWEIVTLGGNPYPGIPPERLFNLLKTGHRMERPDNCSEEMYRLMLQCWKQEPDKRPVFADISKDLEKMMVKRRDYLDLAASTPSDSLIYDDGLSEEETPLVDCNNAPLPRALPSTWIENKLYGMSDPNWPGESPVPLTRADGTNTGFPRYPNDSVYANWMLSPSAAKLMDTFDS

SMILES	IC50 [µM]
CCOC(=O)c1c[nH]c2c(=O)[nH]c3ccc(/C=C/C(=O)NCc4ccccc4)cc3c12 [Compound 68, 8-(2-Benzylcarbamoyl-vinyl)-4-oxo-4,5-dihydro-3H-pyrrolo[2,3-c]quinoline-1-ethyl carboxylate]	1 to 10
CCCOC(=O)c1c[nH]c2c(=O)[nH]c3ccc(S(=O)(=O)N4CC[C@@H](N(C)C)C4)cc3c12 [Compound 172]	1 to 10
CCCOC(=O)c1c[nH]c2c(=O)[nH]c3ccc(S(=O)(=O)N(C[C@H]4CCCN4)C4CC4)cc3c12 [Compound 148, (R)-8-(Cyclopropyl-pyrrolidin-2-ylmethyl-sulfamoyl)-4-oxo-4,5-dihydro-3H-pyrrolo[2,3-c]quinoline-1-propyl carboxylate hydrochloride]	0.1 to 1
CN(c1ccc(F)cc1)S(=O)(=O)c1ccc2[nH]c(=O)c3[nH]cc(C(=O)OCCO)c3c2c1 [Compound 104, 8-[(4-Fluorophenyl)-methyl-sulfamoyl]-4-oxo-4,5-dihydro-3H-pyrrolo[2,3-c]quinoline-1-2-hydroxyethyl carboxylate]	1 to 10
O=C(c1ccccc1)c1c[nH]c2c(=O)[nH]c3ccccc3c12 [Compound 76, 1-Benzoyl-3,5-dihydro-pyrrolo[2,3-c]quinolin-4-one]	1 to 10
COC(=O)c1c[nH]c2c(=O)[nH]c3ccc(S(=O)(=O)NC4CCCC4)cc3c12 [Compound 92, 8-Cyclopentylsulfamoyl-4-oxo-4,5-dihydro-3H-pyrrolo[2,3-c]quinoline-1-methyl carboxylate]	1 to 10
CCCOC(=O)c1c[nH]c2c(=O)[nH]c3ccc(S(=O)(=O)N(C)C4CCS(=O)(=O)CC4)cc3c12 [Compound 132, 8-[(1,1-Dioxo-hexahydro-1,6-thiopyran-4-yl)-methyl-sulfamoyl]-4-oxo-4,5-dihydro-3H-pyrrolo[2,3-c]quinoline-1-propyl carboxylate]	1 to 10
O=C(NCc1ccncc1)c1c[nH]c2c(=O)[nH]c3ccccc3c12 [Compound 86, N-(Pyridin-4-ylmethyl)-4-oxo-4,5-dihydro-3H-pyrrolo[2,3-c]quinoline-1-carboxamide]	10 to 100
CCOC(=O)c1c[nH]c2c(=O)[nH]c3ccc(NS(=O)(=O)c4ccc(C(C)=O)cc4)cc3c12 [Compound 55, 8-(4-Acetyl-benzenesulfonylamino)-4-oxo-4,5-dihydro-3H-pyrrolo[2,3-c]quinoline-1-ethyl carboxylate]	1 to 10
CN(C)C(=O)c1c[nH]c2c(=O)[nH]c3ccccc3c12 [Compound 89, N,N-(Dimethyl)-4-oxo-4,5-dihydro-3H-pyrrolo[2,3-c]quinoline-1-carboxamide]	10 to 100
CCOC(=O)c1c[nH]c2c(=O)[nH]c3ccc(S(=O)(=O)N4CCC[C@H]4CN4CCCC4)cc3c12 [Compound 163, (S)-4-Oxo-8-(2-pyrrolidin-1-ylmethyl-pyrrolidine-1-sulfonyl)-4,5-dihydro-3H-pyrrolo[2,3-c]quinoline-1-ethyl carboxylate]	0.1 to 1
CN(C)CCCNC(=O)c1c[nH]c2c(=O)[nH]c3ccccc3c12 [Compound 80, N-(3-Dimethylamino-propyl)-4-oxo-4,5-dihydro-3H-pyrrolo[2,3-c]quinoline-1-carboxamide]	10 to 100
NC(=O)c1c[nH]c2c(=O)[nH]c3ccccc3c12 [Compound 90, 4-Oxo-4,5-dihydro-3H-pyrrolo[2,3-c]quinoline-1-carboxamide]	10 to 100
C#CCN(CCNC(C)C)S(=O)(=O)c1ccc2[nH]c(=O)c3[nH]cc(C(=O)OCCC)c3c2c1 [Compound 158, 8-[(2-isopropylamino-ethyl)-prop-2-ynyl-sulfamoyl]-4-oxo-4,5-dihydro-3H-pyrrolo[2,3-c]quinoline-1-propyl carboxylate hydrochloride]	0.1 to 1

The remaining lines, values ahead:

IC50 [µM]	SMILES
< 0.1	CCCOC(=O)c1c[nH]c2c(=O)[nH]c3cc(F)c(S(=O)(=O)N(CCO)C(C)C)cc3c12 [Compound 185, 7-Fluoro-8-[(2-hydroxy-ethyl)-isopropyl-sulfamoyl]-4-oxo-4,5-dihydro-3H-pyrrolo[2,3-c]quinoline-1-propyl carboxylate]
0.1 to 1	CCOC(=O)c1c[nH]c2c(=O)[nH]c3ccc(S(=O)(=O)N(C)C)cc3c12 [Compound 26, 8-Dimethylsulfamoyl-4-oxo-4,5-dihydro-3H-pyrrolo[2,3-c]quinoline-1-ethyl carboxylate]
0.1 to 1	C#CCN(C)S(=O)(=O)c1ccc2[nH]c(=O)c3[nH]cc(C(=O)OCCC)c3c2c1 [Compound 134, 8-(Methyl-prop-2-ynyl-sulfamoyl)-4-oxo-4,5-dihydro-3H-pyrrolo[2,3-c]quinoline-1-propyl carboxylate]
< 0.1	CCOC(=O)c1c[nH]c2c(=O)[nH]c3ccc(S(=O)(=O)Nc4ccccc4C)cc3c12 [Compound 4, 4-Oxo-8-o-tolylsulfamoyl-4,5-dihydro-3H-pyrrolo[2,3-c]quinoline-1-ethyl carboxylate]
0.1 to 1	CCOC(=O)c1c[nH]c2c(=O)[nH]c3ccc(-c4cccc(C#N)c4)cc3c12 [Compound 239, 8-(3-Cyano-phenyl)-4-oxo-4,5-dihydro-3H-pyrrolo[2,3-c]quinoline-1-ethyl carboxylate]
< 0.1	CCCOC(=O)c1c[nH]c2c(=O)[nH]c3ccc(S(=O)(=O)N(C)CCN(C)C)cc3c12 [Compound 136, 8-[(2-Dimethylamino-ethyl)-methyl-sulfamoyl]-4-oxo-4,5-dihydro-3H-pyrrolo[2,3-c]quinoline-1-propyl carboxylate]
0.1 to 1	CCCOC(=O)c1c[nH]c2c(=O)[nH]c3cc(Cl)c(S(=O)(=O)N(C)C)cc3c12 [Compound 189, 7-Chloro-8-dimethylsulfamoyl-4-oxo-4,5-dihydro-3H-pyrrolo[2,3-c]quinoline-1-propyl carboxylate]
< 0.1	CCOC(=O)c1c[nH]c2c(=O)[nH]c3ccc(S(=O)(=O)Cc4ccccc4)cc3c12 [Compound 35, 4-Oxo-8-phenylmethanesulfonyl-4,5-dihydro-3H-pyrrolo[2,3-c]quinoline-1-ethyl carboxylate]
0.1 to 1	CCOC(=O)c1c[nH]c2c(=O)[nH]c3ccc(NS(=O)(=O)c4cccc(Cl)c4)cc3c12 [Compound 41, 8-(3-Chloro-benzenesulfonylamino)-4-oxo-4,5-dihydro-3H-pyrrolo[2,3-c]quinoline-1-ethyl carboxylate]
0.1 to 1	C#CCN(CCO)S(=O)(=O)c1ccc2[nH]c(=O)c3[nH]cc(C(=O)OCCC)c3c2c1 [Compound 175, 8-[(2-Hydroxy-ethyl)-prop-2-ynyl-sulfamoyl]-4-oxo-4,5-dihydro-3H-pyrrolo[2,3-c]quinoline-1-propyl carboxylate]
0.1 to 1	CCOC(=O)c1c[nH]c2c(=O)[nH]c3ccc(S(=O)(=O)NC)cc3c12 [Compound 27, 8-Methylsulfamoyl-4-oxo-4,5-dihydro-3H-pyrrolo[2,3-c]quinoline-1-ethyl carboxylate]
0.1 to 1	CCOC(=O)c1c[nH]c2c(=O)[nH]c3ccc(-c4ccno4)cc3c12 [Compound 281, 8-Isoxazol-5-yl-4-oxo-4,5-dihydro-3H-pyrrolo[2,3-c]quinoline-1-ethyl carboxylate]
0.1 to 1	CCOC(=O)c1c[nH]c2c(=O)[nH]c3ccc(NS(=O)(=O)c4ccc(Br)cc4)cc3c12 [Compound 46, 8-(4-Bromo-benzenesulfonylamino)-4-oxo-4,5-dihydro-3H-pyrrolo[2,3-c]quinoline-1-ethyl carboxylate]
